{"source": "patent US20210154208A1", "about": "“Method to Identify Agents That Can Overcome Inhibition Caused By Drug-protein Binding of the Human Plasma Protein, Alpha-1-acid Glycoprotein” (The Johns Hopkins University, priority 2019, published 2021)", "key": {"MOLM-14 cells [1]": {"system": "MOLM-14 cells", "test": "Modified plasma inhibition assay (PIA), MTT proliferation in 50% human plasma", "assay_type": "cell-based", "details": "MOLM-14, 48 hours; for fold inhibition (increase in IC50) in the presence of 50% human plasma: MTT, 50% human plasma vs 10% FBS", "method": "(§1) In the original plasma inhibitory assay (PIA), FLT3/ITD-expressing cells are co-incubated with plasma samples from patients receiving a FLT3 TKI, and Western blotting analysis of FLT3 auto-phosphorylation is used to measure the extent of FLT3 inhibitory activity present in their plasma.(9) This can then be compared to total plasma drug levels to determine the relative efficacy of a drug in vivo compared to its activity in vitro. […] To model these effects in the pre-clinical setting, we modified the PIA assay. Whereas the PIA was designed to assess in vivo drug activity with regards to a specific target (e.g.: inhibition of FLT3 auto-phosphorylation by TKI), the modified PIA is similarly cell-based, but measures the clinically relevant biological end-points of cytotoxicity and proliferation inhibition, instead of target inhibition. In the modified assay, FLT3/ITD cell lines are cultured in the presence of human plasma or purified human plasma proteins and treated with a range of concentrations of the drug of interest. […] Furthermore, like the original PIA, Western blot analysis can be performed on cells treated in this manner to study specific pathways of interest (FIG. 1B). […] The modified PIA utilizes the general endpoint of cytotoxicity.\n(§2) Cells in logarithmic growth are resuspended in either human plasma or serum-free RPMI 1640 media supplemented with the plasma protein of interest and seeded in 96-well format at 50 μL per well. Cell density is 2×10^5 cells per well for MOLM-14 and Ba/F3-FLT3/ITD cells. To each well 50 μL of 2× drug dilution in RPMI 1640 media with 10% serum was added. Each condition is plated in quadruplicate. The cells are then incubated at 37° C. After 44 hours of treatment, 10 μL of 5 mg/mL thiazolyl blue tetrazolium bromide (MTT, Sigma) in PBS, sterile-filtered, is added to each well, and the plates are incubated for an additional 4 hours at 37° C. […] Optical absorbance at 570 nm is measured via plate reader (iMark, Bio-Rad), averaging across technical replicates."}, "MOLM-14 cells [2]": {"system": "MOLM-14 cells", "test": "Modified PIA, MTT proliferation with purified human AGP", "assay_type": "cell-based", "details": "for inhibition of TKI activity by purified human AGP: MOLM-14, purified human AGP at physiologic concentration (1 mg/mL), sub-physiologic also tested; for ability to displace TKI (TTT-3002, CEP-701) from AGP: MOLM-14, AGP 1.0 mg/mL, increasing doses of competitor, FIG. 13", "method": "as §1\n(§3) Where Δ is the fold-change in IC50, KA is the drug-protein association constant, P0 is the total protein concentration and PA is the drug-bound protein concentration. From this relationship, in the absence of other drug-protein interactions, fold-change is linearly related to drug-free protein concentration. […] When the analysis also takes into account drug-bound protein, these curves can be used to directly measure KA. To that end, we performed the modified PIA using purified AGP against the staurosporine-derived FLT3 TKI, using MOLM-14 cells (FIG. 4A). For comparison, we also assayed the anti-proliferative effects of non-specific protein kinase C inhibition by staurosporine itself in HL-60 cells (FLT3 wild-type AML).\nCells in logarithmic growth are resuspended in either human plasma or serum-free RPMI 1640 media supplemented with the plasma protein of interest and seeded in 96-well format at 50 μL per well. Cell density is 2×10^5 cells per well for MOLM-14 and Ba/F3-FLT3/ITD cells. To each well 50 μL of 2× drug dilution in RPMI 1640 media with 10% serum was added. Each condition is plated in quadruplicate. The cells are then incubated at 37° C. After 44 hours of treatment, 10 μL of 5 mg/mL thiazolyl blue tetrazolium bromide (MTT, Sigma) in PBS, sterile-filtered, is added to each well, and the plates are incubated for an additional 4 hours at 37° C. […] of 10% sodium dodecyl sulfate (JT Baker) in 10 mM hydrochloric acid (Fisher) is then added to each well, and the plates are incubated at 37° C. overnight. Optical absorbance at 570 nm is measured via plate reader (iMark, Bio-Rad), averaging across technical replicates."}, "FLT3": {"system": "FLT3", "test": "Western blot of FLT3 autophosphorylation and downstream signaling", "assay_type": "cell-based, human", "method": "Cells in logarithmic growth are resuspended in either plasma or RPMI 1640 media supplemented with either 10% FBS serum or physiologic concentrations of purified plasma proteins. The cells are cultured for 1 hour at 37° C. in the presence of drug(s) with intermittent shaking. The cells are then washed, lysed with RIPA buffer (Sigma) per manufacturer's protocol, and total cell lysates separated by sodium dodecyl sulfate polyacrylamide gel electrophoresis (Invitrogen) with Western transfer onto polyvinyl difluoride membranes (Millipore). The membranes are probed for FLT3 by using the S-18 antibody (Santa Cruz), or for other proteins using the indicated antibodies (Cell Signaling Technology), followed by horseradish peroxidase-conjugated goat anti-rabbit secondary antibodies with enhanced chemiluminescence detection (Bio-Rad)."}, "HL-60 cells": {"system": "HL-60 cells", "test": "Modified PIA with purified AGP, anti-proliferative effect of staurosporine", "assay_type": "cell-based, human", "details": "HL-60 cells (FLT3 wild-type AML)", "from_the_text": "as §3\nas §2, with “C.” for “C. After 44 hours of treatment, 10 μL of 5 mg/mL thiazolyl blue tetrazolium bromide (MTT, Sigma) in PBS, sterile-filtered, is added to each well, and the plates are incubated for an additional 4 hours at 37° C.”"}, "Ba/F3-FLT3/ITD-Luc cells": {"system": "Ba/F3-FLT3/ITD-Luc cells", "test": "Ba/F3-FLT3/ITD-Luc engrafted mouse model with human AGP, bioluminescent imaging", "assay_type": "in vivo, BALB/c mice", "details": "mifepristone by oral gavage during treatment, imaged day 9", "experimental": "We transplanted sublethally-irradiated BALB/c mice with Ba/F3-FLT3/ITD-Luc cells (Ba/F3 cells expressing both FLT3/ITD and a luciferase reporter). […] Twenty-four hours after the final treatment (day 9), the mice were again imaged to assess response (FIG. 8C).\nBALB/c mice were transplanted after 300 cGy of sublethal X-ray irradiation using a CIXD irradiator (Xstrahl). 5×10^5 Ba/F3-FLT3/ITD-Luc cells were injected via tail vein. Intraperitoneal injections were performed using PBS vehicle with human AGP (Sigma) at 20 mg/mL. […] Mifepristone (Sigma) was dissolved in 50% ethanol and 50% (2-hydroxypropyl)-□-cyclodextrin (Sigma) and administered by oral gavage every 48 hours. Mice were imaged by intraperitoneal injection of luciferin (3 mg) and visualizing on an IVIS Spectrum imager (Caliper LifeSciences) using Living Image software for analysis on day 5 (to monitor engraftment) and on day 9 (to assess drug effect)."}, "AGP": {"molecular_target": "AGP (Homo sapiens, UniProt P02763)", "sequence (P02763 19-201)": "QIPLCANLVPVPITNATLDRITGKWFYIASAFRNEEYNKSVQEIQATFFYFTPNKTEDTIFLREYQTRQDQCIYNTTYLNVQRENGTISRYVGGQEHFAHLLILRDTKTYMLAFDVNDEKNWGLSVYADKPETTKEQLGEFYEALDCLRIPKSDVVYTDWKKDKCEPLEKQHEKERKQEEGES", "details": "reported value; cited from earlier work"}}}
{"smiles": "CC(C)(C)c1cc(NC(=O)Nc2ccc(-c3cn4c(n3)sc3cc(OCCN5CCOCC5)ccc34)cc2)no1", "note": "[quizartinib]", "values": [{"measurement": "fold inhibition (increase in IC50) in the presence of 50% human plasma", "setting": "MOLM-14 cells [1]", "value": 37, "unit": "fold"}, {"measurement": "inhibition of TKI activity by purified human AGP", "setting": "MOLM-14 cells [2]", "value": "not significant inhibited"}]}
{"smiles": "CNC(=O)c1cc(Oc2ccc(NC(=O)Nc3ccc(Cl)c(C(F)(F)F)c3)cc2)ccn1", "note": "[sorafenib]", "values": [{"measurement": "inhibition of TKI activity by purified human AGP", "setting": "MOLM-14 cells [2]", "value": "not significant inhibited"}]}
{"smiles": "C[C@]12O[C@H](C[C@]1(O)CO)n1c3ccccc3c3c4c(c5c6ccccc6n2c5c31)CNC4=O", "note": "[lestaurtinib]", "values": [{"measurement": "fold inhibition by AGP, predicted", "setting": "MOLM-14 cells [2]; MOLM-14, purified AGP at physiologic concentrations, predicted", "value": "> 1000", "unit": "fold"}, {"measurement": "shift in IC50 with human AGP", "setting": "MOLM-14 cells [2]; human AGP", "value": 500, "unit": "fold"}]}
{"smiles": "CN(C)CCC=C1c2ccccc2CCc2ccccc21", "note": "[amitriptyline]", "values": [{"measurement": "ability to displace TKI (TTT-3002, CEP-701) from AGP", "setting": "MOLM-14 cells [2]", "value": "cannot displace the more tightly-bound TKI from AGP"}]}
{"smiles": "CNC(=O)[C@@]1(N)C[C@H]2O[C@]1(C)n1c3ccccc3c3c4c(c5c6ccccc6n2c5c31)C(=O)NC4", "note": "[TTT-3002]", "values": [{"measurement": "inhibition of FLT3 phosphorylation in the presence of human plasma", "setting": "FLT3; MOLM-14, 1 hour, TKI 10 nM and 100 nM, human plasma", "value": "significant decrease in inhibition of FLT3 phosphorylation"}, {"measurement": "effect of human plasma on IC50", "setting": "MOLM-14 cells [1]; 50% human plasma vs 10% fetal bovine serum", "value": "significantly increased the IC50"}, {"measurement": "fold inhibition (increase in IC50) in the presence of 50% human plasma", "setting": "MOLM-14 cells [1]", "value": 9, "unit": "fold"}, {"measurement": "fold inhibition by AGP (fold-change in IC50)", "setting": "MOLM-14 cells [2]; MOLM-14, purified AGP at physiologic concentrations", "value": 30, "unit": "fold"}, {"measurement": "inhibition of TKI activity by purified human AGP", "setting": "MOLM-14 cells [2]", "value": "comparable inhibition to that observed with human plasma"}]}
{"smiles": "CN[C@@H]1C[C@H]2O[C@@](C)([C@@H]1OC)n1c3ccccc3c3c4c(c5c6ccccc6n2c5c31)C(=O)NC4", "note": "[staurosporine]", "values": [{"measurement": "anti-proliferative activity in the presence of AGP", "setting": "HL-60 cells", "value": "no appreciable activity in the presence of AGP until saturating concentrations of drug were used"}]}
{"smiles": "CC#C[C@]1(O)CC[C@H]2[C@@H]3CCC4=CC(=O)CCC4=C3[C@@H](c3ccc(N(C)C)cc3)C[C@@]21C", "note": "[mifepristone]", "values": [{"measurement": "restoration of FLT3 inhibition by TTT-3002 in the presence of AGP", "setting": "FLT3; MOLM-14, TTT-3002 (2 nM), inhibiting AGP, increasing mifepristone", "value": "dose-dependent restoration of FLT3 inhibition"}, {"measurement": "effect of agent alone on FLT3 autophosphorylation or downstream signaling", "setting": "FLT3; MOLM-14, mifepristone alone", "value": "no effect"}, {"measurement": "response of FLT3/ITD-expressing cells (bioluminescence), mifepristone added to midostaurin/AGP", "setting": "Ba/F3-FLT3/ITD-Luc cells", "value": "regression of the transplanted cells at levels comparable to those of the midostaurin alone treated mice"}, {"measurement": "effect of agent alone on cell growth", "setting": "MOLM-14 cells [2]; MOLM-14, concentrations of maximal disinhibiting effect", "value": "no appreciable effect on cell growth"}, {"measurement": "effect on TTT-3002 dose-response curve in the presence of purified AGP", "setting": "MOLM-14 cells [2]; MOLM-14, increasing concentrations of mifepristone, TTT-3002 plus AGP", "value": "dose-response curve shifted back to that seen in the absence of AGP"}, {"measurement": "effect on TTT-3002 dose-response curves in the absence of AGP", "setting": "MOLM-14 cells [2]; MOLM-14, no AGP", "value": "no impact"}, {"measurement": "KA (association constant with AGP)", "setting": "AGP", "value": "7 to 8", "unit": "µM⁻¹"}]}
{"smiles": "O=C1CCC(N2C(=O)c3ccccc3C2=O)C(=O)N1", "note": "(centres unmarked) [thalidomide]", "values": [{"measurement": "ability to displace TKI (TTT-3002, CEP-701) from AGP", "setting": "MOLM-14 cells [2]", "value": "cannot displace the more tightly-bound TKI from AGP"}]}
